# Measurements taken from ChEMBL document CHEMBL4376882, “Photodynamic Therapy for ras-Driven Cancers: Targeting G-Quadruplex RNA Structures with Bifunctional Alkyl-Modified Porphyrins” (J Med Chem, 2020).
# Active and inactive are the calls of the source. The rule behind the calls is not given here.
# How the values were obtained:
# [1] = test system: PANC-1; experiment: Induction of apoptosis in human PANC1 cells assessed as necrotic cells at 5 nM and photoirradiated at 7.2 J/cm2 measured after 6 to 24 hrs by annexin-V-propidium iodide staining based FACScalibur flow cytometry analysis (reference value: 0.7 %); assay type: functional
# [2] = target: GTPase KRas (Homo sapiens) (UniProt P01116); experiment: Inhibition of KRAS in human PANC1 cells assessed as downregulation of KRAS expression at 15 nM after 4 hrs by Western blot analysis; assay type: cell-based
# Sequence of GTPase KRas (Homo sapiens) (P01116 whole entry, looked up): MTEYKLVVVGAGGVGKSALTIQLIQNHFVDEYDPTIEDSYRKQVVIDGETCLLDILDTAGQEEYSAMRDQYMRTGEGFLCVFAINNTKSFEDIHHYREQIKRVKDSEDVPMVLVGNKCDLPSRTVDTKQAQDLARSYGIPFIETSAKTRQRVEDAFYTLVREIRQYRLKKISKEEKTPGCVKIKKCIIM
# [3] = test system: Quadruplex DNA; experiment: Binding affinity to human KRAS utr-z RNA g-quadruplex assessed as compound-RNA complex stoichiometry ratio of 6:1 by Job's plot analysis; assay type: nucleic-acid assay
# [4] = test system: PANC-1; experiment: Induction of apoptosis in human PANC1 cells assessed as early apoptotic cells at 10 nM and photoirradiated at 7.2 J/cm2 measured after 6 to 24 hrs in presence of NAC by annexin-V-propidium iodide staining based FACScalibur flow cytometry analysis (reference value: 3.1 %); assay type: functional
# [5] = test system: PANC-1; experiment: Induction of apoptosis in human PANC1 cells assessed as necrotic cells at 10 nM and photoirradiated at 7.2 J/cm2 measured after 6 to 24 hrs by annexin-V-propidium iodide staining based FACScalibur flow cytometry analysis (reference value: 0.7 %); assay type: functional
# [6] = Induction of ROS-mediated […] labeled Ras RNA g-quadruplex (unknown origin) degradation at 0.6 uM incubated for 30 mins followed by photoirradiation for 15 to 30 mins by PAGE analysis
structure (smiles),measurement,setting,value
CCCCCCCCCCCCCC[n+]1ccc(-c2c3nc(c(-c4cc[n+](C)cc4)c4ccc([nH]4)c(-c4cc[n+](C)cc4)c4nc(c(-c5cc[n+](C)cc5)c5ccc2[nH]5)C=C4)C=C3)cc1.[I-].[I-].[I-].[I-],Activity,[1],0.6%
same,inhibition,[2],inactive
same,Activity,[3],Active
same,Activity,[4],3.7%
same,Activity,[5],2.2%
same,Activity,[6],Active
